Where “and” joins values, the source holds several entries; their conditions need not be identical. Identical values can stand only once.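 Briefly, cells in 96-well plates were exposed to five compound concentrations for 48 h, and endpoints were estimated by linear interpolation. GI50: concentration for 50% inhibition of growth. TGI: total growth inhibition.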
How the values were obtained:
Assay in all cases: NCI-60 cell line screen, 48 h
[1] = system: BT-549 breast
[2] = system: OVCAR-3 ovarian
[3] = system: DU-145 prostate
[4] = system: SK-OV-3 ovarian
[5] = system: U251 CNS
[6] = system: SF-539 CNS
[7] = system: HOP-92 NSCLC
[8] = system: CCRF-CEM leukemia
[9] = system: MOLT-4 leukemia
[10] = system: RPMI-8226 leukemia
[11] = system: HCT-116 colon

CCn1c(=O)c2c3cc(O)ccc3oc2c2ccc(O)cc21
TGI [1]: 76.7 µM
TGI [2]: > 100 µM
TGI [3]: > 100 µM
TGI [4]: > 100 µM
TGI [5]: > 100 µM
TGI [6]: 73 µM
TGI [7]: 80.3 µM
TGI [8]: > 100 µM
TGI [9]: > 100 µM

CCOC(=O)c1c(N)n(-c2ccccc2)c(=S)n(-c2ccccc2)c1=O
TGI [10]: > 100 µM
TGI [1]: > 100 µM
TGI [2]: > 100 µM
TGI [3]: > 100 µM
TGI [5]: > 100 µM
TGI [7]: > 100 µM
TGI [8]: > 100 µM
TGI [9]: > 100 µM

CO/N=C1/c2sccc2[C@H](NC(=O)CNC(=O)OC(C)(C)C)[C@@H]1O
TGI [1]: > 100 µM
TGI [2]: > 100 µM
TGI [3]: > 100 µM
TGI [11]: > 100 µM
TGI [4]: > 100 µM
TGI [5]: > 100 µM
TGI [6]: > 100 µM
TGI [7]: > 100 µM
TGI [8]: > 100 µM
TGI [9]: > 100 µM

O=C(CCc1ccc(O)cc1)c1c(O)cc(O)cc1OC1OC(CO)C(O)C(O)C1O (stereo not given)
TGI [2]: > 100 µM
TGI [3]: > 100 µM
TGI [11]: > 100 µM
TGI [4]: > 100 µM
TGI [6]: > 100 µM
TGI [7]: > 100 µM

COc1cccc(C2c3cc4c(cc3OC(N3CCCC3)C2C)OCO4)c1OC (stereo not given)
TGI [10]: 13.2 µM
TGI [2]: 6.7 µM
TGI [3]: 11.5 µM
TGI [11]: 5.99 µM
TGI [6]: 16.2 µM
TGI [8]: 16.9 µM
TGI [9]: 10.7 µM

NCCCC(N)C(=O)O (stereo not given)
TGI [10]: > 100 µM
TGI [1]: > 100 µM
TGI [2]: > 100 µM
TGI [3]: > 100 µM
TGI [11]: > 100 µM
TGI [4]: > 100 µM
TGI [5]: > 100 µM
TGI [7]: > 100 µM
TGI [8]: > 100 µM
TGI [9]: > 100 µM

CC(C)=CC1C(C(=O)O)C1(C)C (stereo not given)
TGI [10]: > 750 µM
TGI [2]: > 750 µM
TGI [11]: > 750 µM
TGI [4]: > 750 µM
TGI [5]: > 750 µM
TGI [6]: > 750 µM
TGI [7]: > 750 µM
TGI [8]: > 750 µM
TGI [9]: > 750 µM

O=C1NC(=S)NC(=O)C1C(c1ccccc1[N+](=O)[O-])C1C(=O)NC(=S)NC1=O
TGI [10]: > 100 µM
TGI [1]: > 100 µM
TGI [2]: > 100 µM
TGI [3]: > 100 µM
TGI [11]: > 100 µM
TGI [5]: > 100 µM
TGI [7]: > 100 µM
TGI [8]: > 100 µM
TGI [9]: > 100 µM

CN1CN(c2ccccc2)C2(CCN(CCCC3(c4cccs4)OCCO3)CC2)C1=O
TGI [10]: > 100 µM
TGI [2]: > 100 µM
TGI [3]: > 100 µM
TGI [11]: > 100 µM
TGI [4]: > 100 µM
TGI [5]: > 100 µM
TGI [6]: > 100 µM
TGI [7]: > 100 µM
TGI [8]: > 100 µM
TGI [9]: > 100 µM

COc1cc([C@@H]2c3cc4c(cc3C[C@H]3COC(=O)[C@@H]32)OCO4)cc(OC)c1OC
GI50 [10]: 0.00382 µM and 0.01 µM
TGI [10]: 6.57 µM
GI50 [2]: 0.00424 µM and 0.00911 µM
TGI [2]: 0.0745 µM
TGI [3]: 0.00914 µM
GI50 [11]: 0.0026 µM and 0.00848 µM
GI50 [4]: 0.00431 µM
TGI [4]: > 50 µM
GI50 [5]: 0.00392 µM
TGI [5]: 1.5 µM
GI50 [6]: 0.00279 µM and 0.0062 µM
TGI [6]: 0.00812 µM
GI50 [7]: 0.00752 µM
GI50 [8]: 0.00386 µM
TGI [8]: 21.1 µM
GI50 [9]: 0.00428 µM
TGI [9]: 0.12 µM

COC(c1ccc(C(C)(C)C)cc1)(c1ccc(C(C)(C)C)cc1)c1cc(C(O)(c2cc(C(OC)(c3ccc(C(C)(C)C)cc3)c3ccc(C(C)(C)C)cc3)c(C)cc2C)c2cc(C(OC)(c3ccc(C(C)(C)C)cc3)c3ccc(C(C)(C)C)cc3)c(C)cc2C)c(C)cc1C
TGI [1]: > 100 µM
TGI [2]: > 100 µM
TGI [3]: > 100 µM
TGI [11]: > 100 µM
TGI [4]: > 100 µM
TGI [5]: > 100 µM
TGI [6]: > 100 µM
TGI [7]: > 100 µM
TGI [8]: > 100 µM
TGI [9]: > 100 µM

C[C@@H]1C[C@H](O)[C@]2(O)O[C@@H]3C[C@@]4(C=O)[C@@H](CC=C5[C@@H]4CC[C@]4(C)[C@@H](C6=CC(=O)OC6)CC[C@]54O)C[C@H]3O[C@@H]2O1
TGI [10]: 0.349 µM
TGI [1]: 0.0508 µM
TGI [2]: 0.308 µM
TGI [3]: 0.0384 µM
TGI [11]: 0.036 µM
TGI [4]: 1.86 µM
TGI [5]: 0.188 µM
TGI [6]: 0.141 µM
TGI [7]: 0.174 µM
TGI [8]: 0.0161 µM

CC(C)(CO)N1C(=O)c2ccccc2C1(O)c1ccc(Cl)cc1 (stereo not given)
TGI [10]: > 100 µM
TGI [1]: > 100 µM
TGI [2]: > 100 µM
TGI [3]: > 100 µM
TGI [11]: > 100 µM
TGI [4]: > 100 µM
TGI [5]: > 100 µM
TGI [8]: > 100 µM
TGI [9]: > 100 µM

Cc1cc(C)c2c(n1)S(=O)(=O)N(CCCN1CCN(c3cccc(C(F)(F)F)c3)CC1)/C(=C(\O)c1ccc(Cl)cc1)C2=O
TGI [1]: 19.3 µM
TGI [2]: 18.9 µM
TGI [3]: 19.9 µM
TGI [11]: 11.9 µM
TGI [4]: 20.3 µM
TGI [5]: 14.3 µM
TGI [6]: 17.1 µM
TGI [7]: 8.35 µM
TGI [8]: > 100 µM
TGI [9]: 4 µM

C=CCCCC12CCCc3cccc(c31)NC2=O (stereo not given)
TGI [10]: 47.3 µM
TGI [2]: 39.1 µM
TGI [11]: 26.4 µM
TGI [4]: 45.3 µM
TGI [5]: 50.3 µM
TGI [6]: 47.4 µM
TGI [7]: 31.8 µM
TGI [8]: > 100 µM
TGI [9]: 55.1 µM

CCOc1ccc(N=C/C=C(\Cl)c2ccc3ccccc3c2)cc1
TGI [10]: 24.7 µM
TGI [1]: 40.4 µM
TGI [2]: 31.5 µM
TGI [3]: 30.7 µM
TGI [11]: 21.6 µM
TGI [4]: 38.4 µM
TGI [5]: 33.4 µM
TGI [6]: 39 µM
TGI [7]: 33.3 µM
TGI [9]: 6.16 µM

COC1C=CC23c4cc5c(cc4C(O)OC2CN(C)C3C1)OCO5 (stereo not given)
TGI [10]: 8.34 µM
TGI [2]: 5.8 µM
TGI [11]: 10.1 µM
TGI [6]: 3.65 µM
TGI [8]: 7.21 µM
TGI [9]: 5.32 µM

O=C(O[C@H](/C=C/c1ccccc1)P1(=O)N(Cc2ccccc2)[C@@H]2CCCC[C@H]2N1Cc1ccccc1)c1ccccc1
TGI [10]: 6.39 µM
TGI [1]: > 100 µM
TGI [2]: 94.3 µM
TGI [11]: 12.1 µM
TGI [4]: > 100 µM
TGI [5]: 31.3 µM
TGI [6]: 22.2 µM
TGI [7]: 6.72 µM
TGI [8]: > 100 µM

C/C(=N/NC(=S)Nc1cccc(C)c1)c1ccccn1
TGI [10]: 13.7 µM
TGI [1]: 12.2 µM
TGI [2]: 0.118 µM
TGI [3]: 8.29 µM
TGI [11]: 3.11 µM
TGI [4]: 2.78 µM
TGI [5]: 4.89 µM
TGI [6]: 5.62 µM
TGI [7]: 6.12 µM

CCOC(=O)C(=O)N1C(C)=C(C(=O)OCC)CC(C(=O)OCC)=C1C
TGI [10]: > 100 µM
TGI [2]: > 100 µM
TGI [3]: > 100 µM
TGI [11]: > 100 µM
TGI [4]: > 100 µM
TGI [6]: > 100 µM
TGI [7]: > 100 µM
TGI [8]: > 100 µM
TGI [9]: > 100 µM

O=C(O)CNC(=O)c1ccc([As](=O)(O)O)cc1
TGI [10]: > 100 µM
TGI [1]: > 100 µM
TGI [2]: > 100 µM
TGI [3]: > 100 µM
TGI [11]: > 100 µM
TGI [4]: > 100 µM
TGI [5]: > 100 µM
TGI [7]: > 100 µM
TGI [8]: > 100 µM
TGI [9]: > 100 µM

N#Cc1c(OCCF)c2ccccc2n2c1nc1ccccc12
TGI [10]: > 100 µM
TGI [2]: > 100 µM
TGI [3]: > 100 µM
TGI [11]: > 100 µM
TGI [4]: > 100 µM
TGI [5]: > 100 µM
TGI [6]: 52.3 µM
TGI [8]: > 100 µM
TGI [9]: > 100 µM
